According to US11969417B2, “Topical formulation for use in alopecia” (TOMORROWLABS GMBH, priority 2019, dated 2024):
“Also recorded” adds a separate entry of the source.

Test system: dermal papilla cell (DP)
Test: 3D spheroid (hanging drop) culture model of dermal papilla cells
Assay type: cell-based
Conditions: 3D spheroid culture
Protocol: FIG. 1: 3D hanging drop culture of DPCs. […] After spheroid formation is complete, the samples are transferred into a 96 well plate for further cultivation and drug exposure. […] (A) Representative images of spheroids stained for newly synthesized cells were taken after drug exposure for 12 hours (left column) and 24 hours (right column) respectively. Scale bars: 200 μm.

Cc1c(O)c(=O)ccn1C [Deferiprone, 3-hydroxy-1,2-dimethylpyridin-4(1H)-one]
DP cell migration (radius of migration around the spheroids) (after 24 hours): without impeding; also recorded: unchanged
DP cell proliferation (synthesis of new daughter cells) (drug exposure for 12 hours and 24 hours): significantly increases; also recorded: significantly enhanced
